Assay [1] deals with Muscarinic acetylcholine receptor M3 (Cavia porcellus) (UniProt Q8VH26).
Description: Compound was evaluated for dissociation constant (KA), determined from potency against Muscarinic acetylcholine receptor M3 in an isolated tissue assay (guinea pig trachea)
For assay [2], the target named is T1, Muscarinic acetylcholine receptor M2 (Rattus norvegicus, UniProt P10980).
T1 sequence (P10980 whole entry): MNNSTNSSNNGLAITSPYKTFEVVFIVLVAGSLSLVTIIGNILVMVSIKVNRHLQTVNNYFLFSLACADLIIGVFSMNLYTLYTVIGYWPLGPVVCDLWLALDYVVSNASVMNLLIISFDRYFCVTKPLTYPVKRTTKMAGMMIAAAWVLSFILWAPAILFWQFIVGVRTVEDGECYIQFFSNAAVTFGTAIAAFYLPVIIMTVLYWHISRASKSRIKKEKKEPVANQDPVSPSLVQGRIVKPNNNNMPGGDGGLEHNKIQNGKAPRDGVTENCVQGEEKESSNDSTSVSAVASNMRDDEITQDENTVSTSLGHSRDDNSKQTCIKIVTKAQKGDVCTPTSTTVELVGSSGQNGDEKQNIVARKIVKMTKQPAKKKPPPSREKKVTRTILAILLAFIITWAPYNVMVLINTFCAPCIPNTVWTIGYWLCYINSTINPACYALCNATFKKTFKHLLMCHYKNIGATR
Description: Compound was evaluated for its affinity towards Muscarinic acetylcholine receptor M2, using [3H]- N-methyl-scopolamine, a radioligand displacement assay in rat heart membranes

The target of assay [3] is T2, Muscarinic acetylcholine receptor M1 (Rattus norvegicus, UniProt P08482).
T2 sequence (P08482 whole entry): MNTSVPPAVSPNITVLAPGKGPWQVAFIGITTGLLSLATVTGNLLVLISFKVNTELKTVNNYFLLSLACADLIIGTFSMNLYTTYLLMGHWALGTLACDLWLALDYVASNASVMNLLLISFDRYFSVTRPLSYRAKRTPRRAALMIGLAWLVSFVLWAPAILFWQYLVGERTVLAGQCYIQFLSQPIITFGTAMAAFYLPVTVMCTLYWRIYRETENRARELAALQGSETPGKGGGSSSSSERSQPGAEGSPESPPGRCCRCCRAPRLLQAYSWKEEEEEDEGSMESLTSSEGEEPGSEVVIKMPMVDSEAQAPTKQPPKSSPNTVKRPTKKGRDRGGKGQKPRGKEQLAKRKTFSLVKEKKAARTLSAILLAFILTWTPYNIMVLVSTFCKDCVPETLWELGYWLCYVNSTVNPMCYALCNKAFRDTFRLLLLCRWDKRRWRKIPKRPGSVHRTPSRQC
Description: Compound was evaluated for its affinity towards Muscarinic acetylcholine receptor M1, using [3H]- pirenzepine, a radioligand displacement assay in rat hippocampal membranes

Sequence of Muscarinic acetylcholine receptor M3 (Cavia porcellus) (Q8VH26 1-587): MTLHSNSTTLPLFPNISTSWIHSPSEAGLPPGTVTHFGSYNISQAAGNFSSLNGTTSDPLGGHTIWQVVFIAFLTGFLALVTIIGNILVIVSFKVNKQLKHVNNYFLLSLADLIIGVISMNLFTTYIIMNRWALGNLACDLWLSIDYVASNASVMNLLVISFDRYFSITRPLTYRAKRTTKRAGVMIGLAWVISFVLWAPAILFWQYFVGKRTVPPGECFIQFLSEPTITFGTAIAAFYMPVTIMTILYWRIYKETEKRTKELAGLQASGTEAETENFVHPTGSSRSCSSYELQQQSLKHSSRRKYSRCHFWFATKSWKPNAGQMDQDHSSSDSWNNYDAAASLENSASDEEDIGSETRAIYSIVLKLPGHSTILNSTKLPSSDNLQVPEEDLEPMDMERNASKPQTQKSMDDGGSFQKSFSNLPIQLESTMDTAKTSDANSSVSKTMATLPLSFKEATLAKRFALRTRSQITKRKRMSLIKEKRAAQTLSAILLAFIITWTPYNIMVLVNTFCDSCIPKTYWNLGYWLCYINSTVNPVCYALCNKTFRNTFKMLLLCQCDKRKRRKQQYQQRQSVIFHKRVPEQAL

As for `C[C@H]1OC2(CCN(C)CC2)CC1=O`, in assay [1], the KA was 4.5 µM. Moreover, the values for the Ki in assay [2] and in assay [3] were 37 µM and 26 µM, respectively.

Turning to `C[C@@H]1OC2(CCN(C)CC2)CC1=O`, in assay [1], the KA came to 0.28 µM. For the same compound, the Ki (usually a dissociation constant, usually derived from enzyme kinetics or from competition with a known ligand) stood at 2.5 µM in assay [2] and 4.1 µM in assay [3].

For `CC1OC2(CCN(C)CC2)CC1=O` (centres undefined), the KA in assay [1] came out at 0.7 µM. Further, the Ki in assay [2] was found to be 5.3 µM; in assay [3], 3.8 µM.

The record behind these values is ChEMBL document CHEMBL1128612, “Synthesis and biological activity of enantiomers of a conformationally restricted muscarone analog” (Bioorg Med Chem Lett, 1995).
